“Also recorded” adds a separate entry of the source.
Columns and labels:
[1] = Hygroscopicity test (VTI SGA-100, 25° C., 5 to 95% relative humidity); assay type: physicochemical; conditions: for hygroscopicity (in words): 5 to 95% relative humidity
Procedure: The measurement was carried out using “DVS” or “SGA-100”, under the conditions of temperature: 25° C., measurement range: 5 to 95% relative humidity, and measurement interval: 5% relative humidity.
For the measurement of hygroscopicity, “VTI SGA-100” was used under the conditions of temperature: 25° C., measurement range: 5 to 95% relative humidity, and measurement interval: 5% relative humidity.

[2] = Photo stability test (impurity by HPLC after 1.2 million lux-hours); assay type: physicochemical; conditions: after preservation under 1.2 million lux-hours of integrated luminance, 25° C.
Procedure: The amount of impurity was measured through HPLC using a preserved sample, under 1.2 million lux-hours (temperature: 25° C.) of integrated luminance, using a light stability testing device LTL-200D3J-15.
The amount of impurity was measured through HPLC using a preserved sample, under 1.2 million lux-hours (temperature: 25° C.) of integrated luminance, using a light stability testing device LTL-200D3J-15. • HPLC Conditions • Device: LC1100 (LC-5) manufactured by Agilent • Mobile phase: A: 0.01 mol/L, NaClO4 buffer (pH 2.5), B: MeCN • Flow rate: 0.2 mL/min • Column: Inertsil ODS-3 3 um (2.1 mm×100 mm) • Column temperature: 40° C. • Gradient condition: Bconc. 20 to 90% (0 to 18 min), 90% (18 to 23 min), 20% (23.1 to 33 min) • Injection volume: 1 μL • Autosampler temperature: 5° C. • Detection wavelength: 254 nm

SMILES	hygroscopicity (in words) [1]	Impurity Increase Amount (%) [2] [%]	Impurity Increase Amount (%) ([2]; listed as γ-form Crystal)	Impurity Increase Amount (%) ([2]; listed as β-form Crystal)	Impurity Increase Amount (%) ([2]; listed as α-form Crystal)	relative humidity from which a drastic increase in weight is shown [1]	relative humidity from which hygroscopicity gradually starts [1]	moisture retained ([1]; at a relative humidity of about 95%)	Impurity Increase Amount (%) ([2]; listed as δ-form Crystal)
CC(C)c1nnc(-c2ccc(-c3ccccc3)nc2)n1-c1cccc2nonc12 [γ-form crystal, 4-[3-isopropyl-5-(6-phenyl-3-pyridyl)-1,2,4-triazol-4-yl]-2,1,3-benzoxadiazole]	no hygroscopicity	0.0	0.0	–	–	–	–	–	–
CC(C)c1nnc(-c2ccc(-c3ccccc3)nc2)n1-c1cccc2nonc12 [β-form crystal, 4-[3-isopropyl-5-(6-phenyl-3-pyridyl)-4H-1,2,4-triazol-4-yl]-2,1,3-benzoxadiazole]	no hygroscopicity	0.0	–	0.0	–	–	–	–	–
CC(C)c1nnc(-c2ccc(-c3ccccc3)nc2)n1-c1cccc2nonc12 [α-form crystal, 4-[3-isopropyl-5-(6-phenyl-3-pyridyl)-4H-1,2,4-triazol-4-yl]-2,1,3-benzoxadiazole]	less than that of the known δ-form crystal; also recorded: relatively low hygroscopicity as compared to the known δ-form crystal	0.0	–	–	0.0	–	–	–	–
CC(C)c1nnc(-c2ccc(-c3ccccc3)nc2)n1-c1cccc2nonc12 [δ-form crystal, 4-[3-isopropyl-5-(6-phenyl-3-pyridyl)-4H-1,2,4-triazol-4-yl]-2,1,3-benzoxadiazole, reference compound]	–	1.0	–	–	–	about 80%	about 50%	approximately 2%	1.0

Reference: patent publication US8278333B2, “Crystals of benzoxadiazole derivative” (Astellas Pharma Inc., priority 2006, dated 2012)
